PubChem BioAssay (NCI)
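Tested at 5 concentrations; 48 h exposure; 96-well plates; endpoints linearly interpolated, else capped at highest concentration. Abbreviation: GI50, concentration required for 50% inhibition of growth. TGI denotes the concentration required for complete inhibition of growth.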

Columns and labels:
Assay in all cases: DTP human tumour cell line panel, 48 h
IGROV1 ovarian = test system: IGROV1 ovarian
M14 melanoma = test system: M14 melanoma
OVCAR-4 ovarian = test system: OVCAR-4 ovarian
K-562 leukemia = test system: K-562 leukemia
SK-MEL-5 melanoma = test system: SK-MEL-5 melanoma
OVCAR-8 ovarian = test system: OVCAR-8 ovarian
HCT-116 colon = test system: HCT-116 colon
SNB-75 CNS = test system: SNB-75 CNS
SR leukemia = test system: SR leukemia
MALME-3M melanoma = test system: MALME-3M melanoma

Row | Structure (SMILES) | TGI (IGROV1 ovarian) | TGI (M14 melanoma) | TGI (OVCAR-4 ovarian) | TGI (K-562 leukemia) | TGI (SK-MEL-5 melanoma) | TGI (OVCAR-8 ovarian) | TGI (HCT-116 colon) | TGI (SNB-75 CNS) | TGI (SR leukemia) | TGI (MALME-3M melanoma) | GI50 (M14 melanoma) | GI50 (OVCAR-4 ovarian) | GI50 (K-562 leukemia) | GI50 (OVCAR-8 ovarian) | GI50 (HCT-116 colon) | GI50 (SNB-75 CNS) | GI50 (IGROV1 ovarian) | GI50 (MALME-3M melanoma) | GI50 (SK-MEL-5 melanoma) | GI50 (SR leukemia)
1 | Cc1c2c(C(N)=O)nccc2c(C)c2c1c1ccccc1n2Cc1ccccc1 | 42.7 µM | > 100 µM | 7.47 µM | 45.7 µM | 67.5 µM | 31.3 µM | 29 µM | 39.9 µM | – | – | – | – | – | – | – | – | – | – | – | –
2 | CCOC(=O)C1=C(Nc2ccc(Br)cc2)OCC1=O | > 100 µM | > 100 µM | > 100 µM | – | > 100 µM | > 100 µM | > 100 µM | > 100 µM | > 100 µM | > 100 µM | – | – | – | – | – | – | – | – | – | –
3 | CCOC(=O)C(C)(c1c(C)[nH]c2ccccc12)c1c(C)[nH]c2ccccc12 | 51.3 µM | 29.8 µM | 32 µM | 42.4 µM | 31.1 µM | 81.7 µM | 25 µM | 48.6 µM | – | 43 µM | – | – | – | – | – | – | – | – | – | –
4 | CC1CCC(C(C)(C)c2ccccc2)C(=O)C1 (stereo not given) | > 100 µM | > 100 µM | > 100 µM | > 100 µM | > 100 µM | > 100 µM | > 100 µM | > 100 µM | – | > 100 µM | – | – | – | – | – | – | – | – | – | –
5 | COC(=O)c1c[nH]cc1CCCCc1c[nH]cc1C(=O)OC | > 100 µM | – | > 100 µM | > 100 µM | – | > 100 µM | > 100 µM | – | > 100 µM | > 100 µM | – | – | – | – | – | – | – | – | – | –
6 | C=C1C(=O)OC2C1CC(OC(C)=O)/C(C)=C/CCC1(C)OC21 (stereo not given) | > 100 µM | > 100 µM | > 100 µM | > 100 µM | > 100 µM | > 100 µM | > 100 µM | > 100 µM | – | > 100 µM | – | – | – | – | – | – | – | – | – | –
7 | NC(=O)c1cn(Cc2ccccc2)c(=O)n1Cc1ccccc1 | > 100 µM | > 100 µM | > 100 µM | > 100 µM | > 100 µM | > 100 µM | > 100 µM | > 100 µM | – | – | – | – | – | – | – | – | – | – | – | –
8 | COc1ccc(-c2cc(-c3ccc(Nc4ccnc5cc(Cl)ccc45)cc3)nc(N3CCOCC3)n2)cc1 | – | > 100 µM | 3.57 µM | > 100 µM | – | > 100 µM | > 100 µM | 5.32 µM | – | – | 2.81 µM | 1.83 µM | 6.18 µM | 4.43 µM | 2.96 µM | 1.52 µM | – | – | – | –
9 | N#CC(C#N)=C1CCCOc2c1ccc1ccccc21 | > 100 µM | > 100 µM | > 100 µM | 43.5 µM | – | > 100 µM | > 100 µM | – | – | > 100 µM | > 100 µM | > 100 µM | 20.4 µM | > 100 µM | > 100 µM | – | > 100 µM | > 100 µM | – | –
10 | CC12CCC(=O)N1c1cccnc1N2 (stereo not given) | > 100 µM | > 100 µM | > 100 µM | > 100 µM | > 100 µM | > 100 µM | – | > 100 µM | – | > 100 µM | – | – | – | – | – | – | – | – | – | –
11 | COc1cc(/C=C/C(=O)Oc2ccccc2)ccc1C(=O)O/C=C/c1ccccc1 | > 100 µM | > 100 µM | > 100 µM | > 100 µM | > 100 µM | > 100 µM | > 100 µM | > 100 µM | – | > 100 µM | – | – | – | – | – | – | – | – | – | –
12 | Cc1ccc(C)c(N2C(=O)C(=O)C(c3nc4ccccc4o3)/C(=N/N)C2=O)c1 (stereo not given) | > 100 µM | > 100 µM | > 100 µM | – | > 100 µM | > 100 µM | > 100 µM | > 100 µM | > 100 µM | > 100 µM | – | – | – | – | – | – | – | – | – | –
13 | CCOC(=O)c1sc(NC(=O)COc2cccc(/C=C3\CCc4cc(OC)ccc4C3=O)c2)nc1C | 21 µM | > 100 µM | > 100 µM | 6.26 µM | 13.3 µM | 25.3 µM | > 100 µM | > 100 µM | – | > 100 µM | 7.95 µM | 9.07 µM | 1.94 µM | 4.59 µM | 3.18 µM | 2.51 µM | 3.02 µM | 47 µM | 2.65 µM | –
14 | NC(CCc1ncc(C(=O)O)s1)C(=O)O (stereo not given) | > 100 µM | > 100 µM | – | > 100 µM | > 100 µM | > 100 µM | > 100 µM | > 100 µM | – | > 100 µM | – | – | – | – | – | – | – | – | – | –
15 | c1ccc2c(c1)c1ccccc1c1ccccc21 | > 100 µM | > 100 µM | > 100 µM | > 100 µM | > 100 µM | > 100 µM | > 100 µM | > 100 µM | – | > 100 µM | > 100 µM | > 100 µM | > 100 µM | > 100 µM | > 100 µM | > 100 µM | > 100 µM | > 100 µM | > 100 µM | –
16 | C1=NC(N(Cc2ccccc2)Cc2ccccc2)N(Cc2ccccc2)N1 (stereo not given) | 33.6 µM | 23.1 µM | 36.7 µM | 43.9 µM | 27.3 µM | 54.5 µM | 21.3 µM | 62.8 µM | – | 25.8 µM | – | – | – | – | – | – | – | – | – | –
17 | COc1cc(/C=N\O[Si](C)(C)C(C)(C)C)ccc1O[Si](C)(C)C(C)(C)C | > 100 µM | > 100 µM | > 100 µM | > 100 µM | > 100 µM | > 100 µM | > 100 µM | > 100 µM | – | > 100 µM | – | – | – | – | – | – | – | – | – | –
18 | C=CCC1(C)CCCCC1(O)CS(=O)c1ccccc1 (stereo not given) | > 100 µM | > 100 µM | > 100 µM | – | > 100 µM | > 100 µM | > 100 µM | > 100 µM | > 100 µM | > 100 µM | – | – | – | – | – | – | – | – | – | –
19 | O=C1C2[C@@H](C(=O)N1c1ccc(Br)cc1)C13C(=CC2([N+](=O)[O-])[C@@H]2C(=O)N(c4ccc(Br)cc4)C(=O)[C@@H]21)c1ccccc1N3c1ccccc1 (stereo not given in full) | – | > 100 µM | – | > 100 µM | – | > 100 µM | – | > 100 µM | > 100 µM | > 100 µM | – | – | – | – | – | – | – | – | – | –
20 | COc1cc(/C=C2\CCC/C(=C\c3ccc(OCC4CO4)c(OC)c3)C2=O)ccc1OCC1CO1 (stereo not given) | 7.07 µM | 3.99 µM | – | > 100 µM | 3.52 µM | 9.11 µM | 6.01 µM | 19.1 µM | > 100 µM | 4.56 µM | 1.94 µM | – | 3.46 µM | 2.1 µM | 1.85 µM | 2.92 µM | 2.87 µM | 1.95 µM | 1.74 µM | 2.29 µM
21 | CCC[CH2][Sn]1([CH2]CCC)[O]CC(COc2c(Cl)cc(Cl)cc2Cl)[O]1 (stereo not given) | 3.46 µM | 3.13 µM | 3.76 µM | – | – | 2.37 µM | 3.03 µM | 3.77 µM | – | 2.34 µM | 1.72 µM | 1.91 µM | – | 1.12 µM | 1.67 µM | 1.17 µM | 1.8 µM | 1.06 µM | – | –
